Data as given in EP0097023A2, “Prostaglandin D derivatives, process for their preparation and compositions containing them” (ONO PHARMACEUTICAL CO., LTD., priority 1982, dated 1983).
Like-named read-outs stand apart in the source and are kept apart here.

Columns and labels:
[1] = system: human myelogenous leukemic cells (HL-60); assay: Inhibition of proliferation of human myelogenous leukemic cells (HL-60), Trypan Blue staining; type: cell-based; conditions: for Surviving Cell Number: stationary culture at 37°C for 4 days, start 1 x 10^5 cells/ml, control 44.0 x 10^4; for inhibition at 5 µg/mL: Homo sapiens
Procedure: The test on the inhibition of the proliferation of human myelogenous leukemic cells was conducted by a well known method. The human myelogenous leukemic cells (HL-60) were added to an RPMI culture solution containing 10% bovine fetal serum, the number of cells in the culture solution was adjusted to 1 x 10^5 cells/ml, a solution in ethanol of the compound under test was added to give a concentration of 5µg/ml, and the mixture was subjected to stationary culture at 37°C for 4 days. As a control, a culture solution containing 0.1% of ethanol was similarly cultured. The culture solutions were stained by the Trypan Blue staining method and the surviving cell number was measured to determine the degree of inhibition relative to the control.

[2] = Blood pressure depression after intravenous administration to the allobarbital-anesthetized dog; type: in vivo
[3] = Acute toxicity by intraperitoneal administration; conditions: mouse, in vivo, ip; intraperitoneal administration in mice
Procedure: The acute toxicity of the compounds of the present invention was >50 mg/kg by intraperitoneal administration, so that the prostaglandin D derivatives of the present invention may be considered to be sufficiently safe and suitable for medical use.

[4] = 96 h, HL-60, 5 µg/ml, 37°C for 4 days, relative to control (0.1% ethanol), b55 gives the same values in %, read-out: Degree of Inhibition
[5] = HL-60, concentration of 5 µg/ml, read-out: inhibited the proliferation of the leukemic cells
[6] = dosage of 10 µg/kg animal body weight

| Structure (SMILES) | Surviving Cell Number ([1]; HL-60, 5 µg/ml) | inhibition at 5 µg/mL [1, 4] | inhibition at 5 µg/mL [1, 5] | blood pressure depression ([2]; dosage of 100 µg/kg animal body weight) | LD50 [3] | blood pressure depression [2, 6] | duration of blood pressure depression effect [2, 6] |
| --- | --- | --- | --- | --- | --- | --- | --- |
| CCCCCC=CC=C1C(=O)C=CC1CC=CCCCC(=O)O (stereo not shown) [(5Z,9Z,14EZ)-11-oxoprosta-5,9,12,14-tetraenoic acid] | 3 x 10^4 cells/ml | 93.2% | 93.2% | did not cause blood pressure depression | 78 mg/kg |  |  |
| CCCCC[C@H](O)/C=C/[C@H]1C(=O)C[C@H](O)[C@@H]1C/C=C\CCCC(=O)O [PGD2, prostaglandin D2] | 19.5 x 10^4 cells/ml | 55.6% | 55.6% |  |  | 26 mm Hg | 6 min |
